Test results: patent publication US12252524B2, “GIP/GLP1 co-agonist compounds” (Eli Lilly and Company, priority 2018, dated 2025)
Numbered stars: 1 amine (or outer) side, 2 acyl side, 3 side chain; on linkers, the order of the positions; unused ones are H or OH. Square brackets hold non-standard residues; d marks the D form. Side chains are listed from the residue outwards. Peptide text beside a SMILES is read from it. * marks the point of attachment. C20 diacid = O=C(O)CCCCCCCCCCCCCCCCCCC(=O)*; C18 diacid = O=C(O)CCCCCCCCCCCCCCCCC(=O)*; αMePhe(2-F) = C[C@](N)(Cc1ccccc1F)C(=O)O; γGlu = O=C(O)[C@H](CCC(=O)[*:2])N[*:1]; αMeL = CC(C)C[C@](C)(N)C(=O)O; AEEA = NCCOCCOCC(=O)O; Aib = CC(C)(N)C(=O)O

Assays:
[1] = target: T1, gastric inhibitory peptide receptor (GIPR) (Homo sapiens, UniProt P48546); test: cAMP pharmacological functional assay in presence of casein, hGIPR; format: cell-based; conditions: HEK293 cells expressing hGIPR, 0.1% Casein, geometric mean; read-out: hGIPR cAMP Rel EC50 nM (SEM, n)
T1 sequence (P48546 22-466): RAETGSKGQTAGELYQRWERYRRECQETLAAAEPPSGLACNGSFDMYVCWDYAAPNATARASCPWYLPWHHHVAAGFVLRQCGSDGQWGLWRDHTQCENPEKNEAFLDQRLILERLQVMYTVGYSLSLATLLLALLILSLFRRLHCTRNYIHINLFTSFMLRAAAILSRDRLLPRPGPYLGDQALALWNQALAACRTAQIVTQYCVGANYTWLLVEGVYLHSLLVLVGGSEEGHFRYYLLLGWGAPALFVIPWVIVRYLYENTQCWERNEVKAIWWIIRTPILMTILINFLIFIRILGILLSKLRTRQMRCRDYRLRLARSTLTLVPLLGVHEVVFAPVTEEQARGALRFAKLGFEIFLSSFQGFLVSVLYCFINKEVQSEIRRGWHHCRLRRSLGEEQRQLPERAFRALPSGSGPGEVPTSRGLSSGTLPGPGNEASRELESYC

[2] = target: human GLP-1 receptor (GLP-1R) (Homo sapiens, UniProt P43220); test: cAMP pharmacological functional assay in presence of casein, hGLP-1R; format: cell-based; conditions: HEK293 cells expressing hGLP-1R, 0.1% Casein, geometric mean; read-out: hGLP1R cAMP Rel EC50 nM (SEM, n)
Sequence of human GLP-1 receptor (GLP-1R) (P43220 24-463): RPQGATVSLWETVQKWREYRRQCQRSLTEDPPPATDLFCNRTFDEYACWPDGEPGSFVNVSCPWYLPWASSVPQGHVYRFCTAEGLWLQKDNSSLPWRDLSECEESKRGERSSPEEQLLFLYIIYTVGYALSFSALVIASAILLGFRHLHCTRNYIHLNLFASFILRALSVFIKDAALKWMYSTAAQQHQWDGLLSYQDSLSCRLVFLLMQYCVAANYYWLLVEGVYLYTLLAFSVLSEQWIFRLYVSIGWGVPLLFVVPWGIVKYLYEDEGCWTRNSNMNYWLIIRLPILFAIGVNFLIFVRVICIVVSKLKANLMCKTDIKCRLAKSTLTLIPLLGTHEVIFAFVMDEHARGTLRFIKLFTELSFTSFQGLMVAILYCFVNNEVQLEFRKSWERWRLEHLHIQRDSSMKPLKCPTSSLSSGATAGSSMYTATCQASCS

human GLP-1R [3] = target: T2, human GLP-1R (Homo sapiens, UniProt P43220); test: [125I]-GLP-1 binding (SPA), human GLP-1 receptor; design: expressed in transfected cells; crude membranes; conditions: read-out: hGLP1R Ki, (nM) (SEM, n)
T2 sequence (P43220 24-463): as above
Procedure, shortened: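 Crude-membrane binding assay; one membrane prep included 1 mM MgCl2 and 25 units/ml DNAse I during lysis. Assay buffer at pH 7.4 contains 0.1% (w/v) bacitracin and 0.003% (w/v) TWEEN-20. Ki is reported as geometric mean.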

human GIP receptor = target: T3, human GIP receptor (Homo sapiens, UniProt P48546); test: [125I]-GIP binding (SPA), human GIP receptor; conditions: read-out: hGIPR Ki, nM (SEM, n)
T3 construct: expressed in transfected cells; crude membranes
T3 sequence (P48546 22-466): T1 sequence (P48546 22-466)

human GLP-1R [4] = target: T2, human GLP-1R; test: GLP-1R CHO cell β-arrestin recruitment assay; format: cell-based; design: host or cells: CHO-K1 PathHunter cells, assay-ready frozen; conditions: for EC50: CHO-K1 cells, PathHunter β-arrestin-2 recruitment, 0.1% casein, read-out: hGLP1R B-Arrestin2 Rel EC50 uM (SEM, n); for hGLP1R B-Arrestin2 % Top: normalized to GLP-1 maximum control
Procedure, shortened: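 PathHunter CHO-K1 cells with ProLink-tagged human GLP-1R and enzyme-acceptor-tagged β-arrestin-2 treated with serially diluted peptides in assay buffer containing 0.1% hydrolyzed casein, 90 min at 37 °C.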

human GLP-1R [5] = target: T2, human GLP-1R; test: GLP-1R HEK293 cell membrane [35S]GTPγS binding assay; format: biochemical; design: expressed in transfected cells; host or cells: HEK293 cells expressing human GLP-1R; membranes; conditions: HEK293 cell membranes expressing human GLP-1R, [35S]GTPγS binding; read-out: hGLP1R GTPgS Rel EC50 nM (SEM, n)
Procedure, shortened: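 Membranes from HEK293 cells expressing the receptor incubated with peptide and […] [35S]GTPγS in HEPES pH 7.4 buffer with NaCl, MgCl2, saponin and BSA, 30 min at room temperature. Gαs-bound label captured by anti-Gαs antibody/SPA beads and counted; EC50 from four-parameter logistic fit.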

human Gcg receptor = target: T4, human Gcg receptor (Homo sapiens, UniProt P47871); test: [125I]-Glucagon binding (SPA), human Gcg receptor; conditions: read-out: hGLcgR Ki, nM (SEM, n)
T4 construct: expressed in transfected cells; crude membranes
T4 sequence (P47871 26-477): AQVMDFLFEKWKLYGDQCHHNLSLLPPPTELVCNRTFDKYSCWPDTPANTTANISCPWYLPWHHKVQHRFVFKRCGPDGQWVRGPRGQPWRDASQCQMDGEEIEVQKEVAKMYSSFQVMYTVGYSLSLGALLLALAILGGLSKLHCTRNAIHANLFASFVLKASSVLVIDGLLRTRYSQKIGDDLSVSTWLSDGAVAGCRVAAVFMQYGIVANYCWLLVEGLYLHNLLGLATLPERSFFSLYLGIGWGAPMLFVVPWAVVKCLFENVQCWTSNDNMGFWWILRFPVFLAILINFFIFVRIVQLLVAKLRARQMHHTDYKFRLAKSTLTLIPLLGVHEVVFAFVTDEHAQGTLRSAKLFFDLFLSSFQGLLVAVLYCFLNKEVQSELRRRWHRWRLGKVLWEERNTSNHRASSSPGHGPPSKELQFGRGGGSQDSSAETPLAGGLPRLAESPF
Procedure, shortened: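 Crude membranes from cells expressing the receptor, prepared by hypotonic lysis in 50 mM Tris HCl pH 7.5 with protease inhibitors, homogenization and differential centrifugation, were used in a WGA-bead SPA. Binding buffer: 25 mM HEPES pH 7.4, 2.5 mM CaCl2, 1 mM MgCl2, bacitracin, Tween-20.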

Row | SMILES | EC50 [1] [nM] | EC50 [2] [nM] | Ki (human GLP-1R [3]) [nM] | Ki (human GIP receptor) [nM] | EC50 (human GLP-1R [4]) [µM] | hGLP1R B-Arrestin2 % Top (human GLP-1R [4]) [%] | EC50 (human GLP-1R [5]) [nM] | Ki (human Gcg receptor) [nM]
1 | CC[C@H](C)[C@H](NC(=O)[C@H](CC(C)C)NC(=O)[C@H](Cc1ccc(O)cc1)NC(=O)[C@H](CCC(=O)O)NC(=O)[C@@H](NC(=O)[C@H](Cc1ccccc1)NC(=O)[C@H](C)NC(=O)C(C)(C)NC(=O)[C@H](CCC(N)=O)NC(=O)[C@H](C)NC(=O)[C@H](CCCCNC(=O)COCCOCCNC(=O)COCCOCCNC(=O)CC[C@H](NC(=O)CCCCCCCCCCCCCCCCC(=O)O)C(=O)O)NC(=O)[C@H](CCCCN)NC(=O)[C@H](CC(=O)O)NC(=O)[C@H](CC(C)C)NC(=O)[C@H](CC(C)C)NC(=O)[C@@H](NC(=O)[C@H](CO)NC(=O)[C@H](Cc1ccc(O)cc1)NC(=O)[C@H](CC(=O)O)NC(=O)[C@H](CO)NC(=O)[C@@H](NC(=O)[C@](C)(Cc1ccccc1F)NC(=O)[C@@H](NC(=O)CNC(=O)[C@H](CCC(=O)O)NC(=O)C(C)(C)NC(=O)[C@@H](N)Cc1ccc(O)cc1)[C@@H](C)O)[C@@H](C)O)[C@@H](C)CC)[C@@H](C)CC)C(=O)N[C@@H](CCC(=O)O)C(=O)NCC(=O)NCC(=O)N1CCC[C@H]1C(=O)N[C@@H](CO)C(=O)N[C@@H](CO)C(=O)NCC(N)=O [Example 302] (H-Y[Aib]EGT[αMePhe(2-F)]TSDYSILLDKK([AEEA-AEEA-γGlu-C18 diacid])AQ[Aib]AFIEYLIEGGPSSG-NH2) | 0.0308 | 0.0275 | 0.617 | 0.0289 | 0.00219 | 98.4 | 0.268 | 18.5
2 | CC[C@H](C)[C@H](NC(=O)[C@H](CC(C)C)NC(=O)[C@H](Cc1ccc(O)cc1)NC(=O)[C@H](CCC(=O)O)NC(=O)[C@@H](NC(=O)[C@H](Cc1ccccc1)NC(=O)[C@H](C)NC(=O)C(C)(C)NC(=O)[C@H](CCC(N)=O)NC(=O)[C@H](C)NC(=O)[C@H](CCCCNC(=O)COCCOCCNC(=O)COCCOCCNC(=O)CC[C@H](NC(=O)CCCCCCCCCCCCCCCCC(=O)O)C(=O)O)NC(=O)[C@H](CCCCN)NC(=O)[C@H](CC(=O)O)NC(=O)[C@H](CC(C)C)NC(=O)[C@H](CC(C)C)NC(=O)[C@@H](NC(=O)[C@H](CO)NC(=O)[C@H](Cc1ccc(O)cc1)NC(=O)[C@H](CC(=O)O)NC(=O)[C@H](CO)NC(=O)[C@@H](NC(=O)[C@H](Cc1ccccc1)NC(=O)[C@@H](NC(=O)CNC(=O)[C@H](CCC(=O)O)NC(=O)C(C)(C)NC(=O)[C@@H](N)Cc1ccc(O)cc1)[C@@H](C)O)[C@@H](C)O)[C@@H](C)CC)[C@@H](C)CC)C(=O)N[C@@H](CCC(=O)O)C(=O)NCC(=O)NCC(=O)N1CCC[C@H]1C(=O)N[C@@H](CO)C(=O)N[C@@H](CO)C(=O)NCC(=O)N[C@@H](C)C(=O)N1CCC[C@H]1C(=O)N1CCC[C@H]1C(=O)N1CCC[C@H]1C(=O)N[C@@H](CO)C(N)=O [Example 315] | 0.0408 | 0.0651 | 2.28 | 0.0677 | 0.0199 | 25.4 | 0.601 | 539
3 | CC[C@H](C)[C@H](NC(=O)[C@H](CC(C)C)NC(=O)[C@H](Cc1ccc(O)cc1)NC(=O)[C@H](CCC(=O)O)NC(=O)[C@@H](NC(=O)[C@H](Cc1ccccc1)NC(=O)[C@H](C)NC(=O)C(C)(C)NC(=O)[C@H](CCC(N)=O)NC(=O)[C@H](C)NC(=O)[C@H](CCCCNC(=O)COCCOCCNC(=O)COCCOCCNC(=O)CC[C@H](NC(=O)CCCCCCCCCCCCCCCCCCC(=O)O)C(=O)O)NC(=O)[C@H](CCCCN)NC(=O)[C@H](CC(=O)O)NC(=O)[C@H](CC(C)C)NC(=O)[C@](C)(CC(C)C)NC(=O)[C@@H](NC(=O)[C@H](CO)NC(=O)[C@H](Cc1ccc(O)cc1)NC(=O)[C@H](CC(=O)O)NC(=O)[C@H](CO)NC(=O)[C@@H](NC(=O)[C@H](Cc1ccccc1)NC(=O)[C@@H](NC(=O)CNC(=O)[C@H](CCC(=O)O)NC(=O)C(C)(C)NC(=O)[C@@H](N)Cc1ccccc1)[C@@H](C)O)[C@@H](C)O)[C@@H](C)CC)[C@@H](C)CC)C(=O)N[C@@H](CCC(=O)O)C(=O)NCC(=O)NCC(=O)N1CCC[C@H]1C(=O)N[C@@H](CO)C(=O)N[C@@H](CO)C(=O)NCC(=O)N[C@@H](C)C(=O)N1CCC[C@H]1C(=O)N1CCC[C@H]1C(=O)N1CCC[C@H]1C(=O)N[C@@H](CO)C(N)=O [Example 327] (H-F[Aib]EGTFTSDYSI[αMeL]LDKK([AEEA-AEEA-γGlu-C20 diacid])AQ[Aib]AFIEYLIEGGPSSGAPPPS-NH2; N-terminus assumed) | 0.0548 | 0.27 | 2.1 | 0.0667 | 0.00379 | 41.6 | 0.287 | 114
4 | CC[C@H](C)[C@H](NC(=O)[C@H](CC(C)C)NC(=O)[C@H](Cc1ccc(O)cc1)NC(=O)[C@H](CCC(=O)O)NC(=O)[C@@H](NC(=O)[C@H](Cc1ccccc1)NC(=O)[C@H](C)NC(=O)C(C)(C)NC(=O)[C@H](CCC(N)=O)NC(=O)[C@H](C)NC(=O)[C@H](CCCCNC(=O)COCCOCCNC(=O)COCCOCCNC(=O)CC[C@H](NC(=O)CCCCCCCCCCCCCCCCCCC(=O)O)C(=O)O)NC(=O)[C@H](CCCCN)NC(=O)[C@H](CC(=O)O)NC(=O)[C@H](CC(C)C)NC(=O)[C@H](CC(C)C)NC(=O)[C@@H](NC(=O)[C@H](CO)NC(=O)[C@H](Cc1ccc(O)cc1)NC(=O)[C@H](CC(=O)O)NC(=O)[C@H](CO)NC(=O)[C@@H](NC(=O)[C@](C)(Cc1ccccc1)NC(=O)[C@@H](NC(=O)CNC(=O)[C@H](CCC(=O)O)NC(=O)C(C)(C)NC(=O)[C@H](N)Cc1ccc(O)cc1)[C@@H](C)O)[C@@H](C)O)[C@@H](C)CC)[C@@H](C)CC)C(=O)N[C@@H](CCC(=O)O)C(=O)NCC(=O)NCC(=O)N1CCC[C@H]1C(=O)N[C@@H](CO)C(=O)N[C@@H](CO)C(=O)NCC(=O)N[C@@H](C)C(=O)N1CCC[C@H]1C(=O)N1CCC[C@H]1C(=O)N1CCC[C@H]1C(=O)N[C@@H](CO)C(N)=O [Example 329] | 0.132 | 0.125 | 3.28 | 0.0439 | 0.00473 | 63.4 | 0.343 | 17
5 | CC[C@H](C)[C@H](NC(=O)[C@H](CC(C)C)NC(=O)[C@H](Cc1ccc(O)cc1)NC(=O)[C@H](CCC(=O)O)NC(=O)[C@@H](NC(=O)[C@H](Cc1ccccc1)NC(=O)[C@H](CCC(=O)O)NC(=O)C(C)(C)NC(=O)[C@H](CCC(N)=O)NC(=O)[C@H](C)NC(=O)[C@H](CCCCNC(=O)COCCOCCNC(=O)COCCOCCNC(=O)CC[C@H](NC(=O)CCCCCCCCCCCCCCCCCCC(=O)O)C(=O)O)NC(=O)[C@H](CCC(=O)O)NC(=O)[C@H](CC(=O)O)NC(=O)[C@H](CC(C)C)NC(=O)[C@](C)(CC(C)C)NC(=O)[C@@H](NC(=O)[C@H](CO)NC(=O)[C@H](Cc1ccc(O)cc1)NC(=O)[C@H](CC(=O)O)NC(=O)[C@H](CO)NC(=O)[C@@H](NC(=O)[C@H](Cc1ccccc1)NC(=O)[C@@H](NC(=O)CNC(=O)[C@H](CCC(=O)O)NC(=O)C(C)(C)NC(=O)[C@@H](N)Cc1ccc(O)cc1)[C@@H](C)O)[C@@H](C)O)[C@@H](C)CC)[C@@H](C)CC)C(=O)N[C@@H](C)C(=O)NCC(=O)NCC(=O)N1CCC[C@H]1C(=O)N[C@@H](CO)C(=O)N[C@@H](CO)C(=O)NCC(=O)N[C@@H](C)C(=O)N1CCC[C@H]1C(=O)N1CCC[C@H]1C(=O)N1CCC[C@H]1C(=O)N[C@@H](CO)C(N)=O [Example 331] (H-Y[Aib]EGTFTSDYSI[αMeL]LDEK([AEEA-AEEA-γGlu-C20 diacid])AQ[Aib]EFIEYLIAGGPSSGAPPPS-NH2) | 0.0547 | 0.0929 | 11.4 | 0.0851 | 0.0128 | 44.3 | 0.375 | > 969
